Data published in US6432959B1, “Inhibitors of farnesyl-protein transferase” (Schering Corporation, priority 1998, dated 2002).
Values joined by “and” are separate entries in the source; they are usually repeats but may differ in a detail not shown here. Equal values may be shown once.

system: not given; assay: not given; conditions: not given

melting point	Structure (SMILES)
72 °C (dec.)	CC(C)(C)OC(=O)N1CCN(C(=O)NC2CCCCC2)[C@@H](C(=O)NCCc2cncn2Cc2ccc(F)cc2)C1 [Example 2]
116.2 °C	O=C(NCCc1cncn1Cc1ccc(Cl)cc1)[C@H]1CN(Cc2ccccc2)CCN1C(=O)NC1CCCCC1 [Example 28C, N4-phenylmethyl-N2-[2-[1-[(4-chlorophenyl)methyl]-1H-imidazol-5-yl]ethyl]-N1-cyclohexyl-1,2(R)-piperazinedicarboxamide]
64.4 °C	O=C(NCCc1cncn1CCc1ccccc1)[C@H]1CN(Cc2ccccc2)CCN1C(=O)NC1CCCCC1 [Example 28D, N4-phenylmethyl-N2-[2-[1-(phenylethyl)-1H-imidazol-5-yl]ethyl]-N1-cyclohexyl-1,2(R)-piperazinedicarboxamide]
115.3 to 170.3 °C	N#Cc1ccc(Cn2cncc2CCNC(=O)[C@H]2CN(Cc3ccccc3)CCN2C(=O)c2ccccc2)cc1 [Example 28G, 1-benzoyl-N-[2-[1-[(4-cyanophenyl)methyl]-1H-imidazol-5-yl]ethyl]-4-phenylmethyl-2(R)-piperazinedicarboxamide]
85.6 to 96.7 °C	N#Cc1ccc(Cn2cncc2CCNC(=O)[C@H]2CN(Cc3ccccc3)CCN2C(=O)Cc2ccccc2)cc1 [Example 28I, N-[2-[1-[(4-cyanophenyl)methyl]-1H-imidazol-5-yl]ethyl]-1-phenylacetyl-4-(phenylmethyl)-2(R)-piperazinedicarboxamide]
97.3 to 150.2 °C	CCS(=O)(=O)N1CCN(Cc2ccccc2)C[C@@H]1C(=O)NCCc1cncn1Cc1ccc(C#N)cc1 [Example 28K, N-[2-[1-[(4-cyanophenyl)methyl]-1H-imidazol-5-yl]ethyl]-1-(ethylsulfonyl)-4-(phenylmethyl)-2(R)-piperazinecarboxamide]
97.8 °C	CC(C)(C)NC(=O)N1CCN(Cc2ccccc2)C[C@@H]1C(=O)NCCc1cncn1Cc1ccc(C#N)cc1 [Example 28O, N2-[2-[1-[(4-cyanophenyl)methyl]-1H-imidazol-5-yl]ethyl]-N1-(1,1-dimethylethyl)-4-(phenylmethyl)-1,2(R)-piperazinedicarboxamide]
118.5 °C	N#Cc1ccc(Cn2cncc2CCNC(=O)[C@H]2CN(Cc3ccccc3)CCN2C(=O)CC2CCN(C(N)=O)CC2)cc1 [Example 28Q, 1-[[1-(aminocarbonyl)-4-piperidinyl]acetyl]-N-[2-[1-[(4-cyanophenyl)methyl]-1H-imidazol-5-yl]ethyl]-4-(phenylmethyl)-2(R)-piperazinecarboxamide]
143.6 °C	N#Cc1ccc(Cn2cncc2CCNC(=O)[C@H]2CN(S(=O)(=O)c3ccccc3)CCN2C(=O)NC2CCCCC2)cc1 [Example 28R, N2-[2-[1-[(4-Cyanophenyl)methyl]-1H-imidazol-5-yl]ethyl]-N1-cyclohexyl-4-(phenylsulfonyl)-1,2(R)-piperazinedicarboxamide]
89.1 °C	O=C([C@H]1CN(Cc2ccccc2)CCN1C(=O)NC1CCCCC1)N(CCCn1ccnc1)Cc1ccccc1 [Example 28S, N1-cyclohexyl-N2-[3-(1H-imidazol-1-yl)propyl]-N2,4-bis(phenylmethyl)-1,2(R)-piperazinedicarboxamide]
71 to 75 °C	CC(C)(C)OC(=O)N1CCN(C(=O)OCc2ccccc2)[C@@H](C(=O)NCCCn2ccnc2C(N)=O)C1 [Example 28Z]

target: T1, partially purified rat brain farnesyl protein transferase (FPT) (Rattus norvegicus, UniProt Q02293+Q04631); assay: FPT IC50, in vitro enzyme assay (inhibition of Ras-CVLS farnesylation); assay type: biochemical; conditions: inhibition of Ras-CVLS farnesylation by partially purified rat brain FPT; value is a range stated for a group of compounds
T1 construct: partially purified rat brain farnesyl protein transferase (FPT); from tissue; host or cells: rat brain
Procedure: 1. In vitro enzyme assays: FPT IC50 (inhibition of farnesyl protein transferase, in vitro enzyme assay) are determined by the methods disclosed in WO/10515 or WO95/10516.

Structure (SMILES)	IC50
N#Cc1ccc(Cn2cncc2CCNC(=O)[C@H]2CN(Cc3nccs3)CCN2C(=O)NC2CCCCC2)cc1 [Example 8]	0.18 to 21 nM
CC(C)(C)CCN1CCN(C(=O)NC2CCCCC2)[C@@H](C(=O)NCCc2cncn2Cc2ccc(C#N)cc2)C1 [Example 9]	0.18 to 21 nM
N#Cc1ccc(CN2CCN(C(=O)NC3CCCCC3)[C@@H](C(=O)NCCc3cncn3Cc3ccc(C#N)cc3)C2)cc1 [Example 10]	0.18 to 21 nM
N#Cc1ccc(Cn2cncc2CCNC(=O)[C@H]2CN(Cc3ccccc3C#N)CCN2C(=O)NC2CCCCC2)cc1 [Example 11]	0.18 to 21 nM
COc1ccc(CN2CCN(C(=O)NC3CCCCC3)[C@@H](C(=O)NCCc3cncn3Cc3ccc(C#N)cc3)C2)cc1 [Example 12]	0.18 to 21 nM
N#Cc1ccc(Cn2cncc2CCNC(=O)[C@H]2CN(CC3CCCCC3)CCN2C(=O)NC2CCCCC2)cc1 [Example 13]	0.18 to 21 nM
N#Cc1ccc(Cn2cncc2CCNC(=O)[C@H]2CN(Cc3ccc(F)cc3)CCN2C(=O)NC2CCCCC2)cc1 [Example 14]	0.18 to 21 nM
N#Cc1ccc(Cn2cncc2CCNC(=O)[C@H]2CN(Cc3ccc(C(F)(F)F)cc3)CCN2C(=O)NC2CCCCC2)cc1 [Example 15]	0.18 to 21 nM
N#Cc1ccc(Cn2cncc2CCNC(=O)[C@H]2CN(Cc3ccc(Cl)cc3)CCN2C(=O)NC2CCCCC2)cc1 [Example 16]	0.18 to 21 nM
N#Cc1ccc(Cn2cncc2CCNC(=O)[C@H]2CN(Cc3ccc(Br)cc3)CCN2C(=O)NC2CCCCC2)cc1 [Example 17]	0.18 to 21 nM
CC(=O)Nc1ccc(CN2CCN(C(=O)NC3CCCCC3)[C@@H](C(=O)NCCc3cncn3Cc3ccc(C#N)cc3)C2)cc1 [Example 20]	0.18 to 21 nM
N#Cc1ccc(Cn2cncc2CCNC(=O)[C@H]2CN(Cc3cccc4ccccc34)CCN2C(=O)NC2CCCCC2)cc1 [Example 21]	0.18 to 21 nM
Cc1ccc(CN2CCN(C(=O)NC3CCCCC3)[C@@H](C(=O)NCCc3cncn3Cc3ccc(C#N)cc3)C2)cc1 [Example 22]	0.18 to 21 nM
N#Cc1ccc(Cn2cncc2CCNC(=O)[C@H]2CN(Cc3ccc(O)cc3)CCN2C(=O)NC2CCCCC2)cc1 [Example 23]	0.18 to 21 nM
N#Cc1ccc(Cn2cncc2CCNC(=O)[C@H]2CN(Cc3ccc(Cl)cc3Cl)CCN2C(=O)NC2CCCCC2)cc1 [Example 24]	0.18 to 21 nM
N#Cc1ccc(Cn2cncc2CCNC(=O)[C@H]2CN(Cc3cccc(Cl)c3)CCN2C(=O)NC2CCCCC2)cc1 [Example 25]	0.18 to 21 nM
COc1cccc(CN2CCN(C(=O)NC3CCCCC3)[C@@H](C(=O)NCCc3cncn3Cc3ccc(C#N)cc3)C2)c1 [Example 26]	0.18 to 21 nM

Structure (SMILES)	IC50
COc1ccccc1CN1CCN(C(=O)NC2CCCCC2)[C@@H](C(=O)NCCc2cncn2Cc2ccc(C#N)cc2)C1 [Example 27]	0.18 to 21 nM
N#Cc1ccc(Cn2cncc2CCNC(=O)[C@H]2CN(Cc3ccccc3Cl)CCN2C(=O)NC2CCCCC2)cc1 [Example 28]	0.18 to 21 nM
N#Cc1ccc(Cn2cncc2CCNC(=O)C2CN(CCc3ccccc3)CCN2C(=O)NC2CCCCC2)cc1 (stereo not shown) [Example 29]	0.18 to 21 nM
CS(=O)(=O)N1CCN(CCc2ccccc2)CC1C(=O)NCCc1cncn1Cc1ccc(C#N)cc1 (stereo not shown) [Example 31]	0.18 to 21 nM
N#Cc1ccc(Cn2cncc2CCNC(=O)C2CN(CCC3CCCCC3)CCN2C(=O)NC2CCCCC2)cc1 (stereo not shown) [Example 32]	0.18 to 21 nM
CCCCCN1CCN(S(C)(=O)=O)C(C(=O)NCCc2cncn2Cc2ccc(C#N)cc2)C1 (stereo not shown) [Example 34]	0.18 to 21 nM
O=C(NCCc1cncn1Cc1ccc(Cl)c(Cl)c1)C1CN(CCC2CCCCC2)CCN1C(=O)NC1CCCCC1 (stereo not shown) [Example 36]	0.18 to 21 nM
N#Cc1ccc(Cn2cncc2CCNC(=O)C2CN(C(=O)c3ccncc3)CCN2C(=O)NC2CCCCC2)cc1 (stereo not shown) [Example 42]	0.18 to 21 nM
CCCCNC(=O)N1CCN(C(=O)NC2CCCCC2)C(C(=O)NCCc2cncn2Cc2ccc(C#N)cc2)C1 (stereo not shown) [Example 47]	0.18 to 21 nM
O=C(NCCc1cncn1Cc1ccc(C(F)(F)F)cc1)C1CN(CCc2cccc(Cl)c2)CCN1C(=O)NC1CCCCC1 (stereo not shown) [Example 53]	0.18 to 21 nM
N#Cc1ccc(Cn2cncc2CCNC(=O)C2CN(CCc3cccc(Cl)c3)CCN2C(=O)NC2CCCCC2)cc1 (stereo not shown) [Example 54]	0.18 to 21 nM and 0.18 to 1.5 nM
Cc1ccc(CCN2CCN(C(=O)NC3CCCCC3)C(C(=O)NCCc3cncn3Cc3ccc(C#N)cc3)C2)cc1O (stereo not shown) [Example 55]	0.18 to 21 nM and 0.18 to 1.5 nM
CC(C)(C)CCN1CCN(C(=O)NC2CCCCC2)C(C(=O)NCCc2cncn2Cc2ccc(Cl)c(Cl)c2)C1 (stereo not shown) [Example 56]	0.18 to 21 nM
COc1cccc(CN2CCN(C(=O)NC3CCCCC3)C(C(=O)NCCc3cncn3Cc3ccc(Cl)c(Cl)c3)C2)c1 (stereo not shown) [Example 58]	0.18 to 21 nM
Cn1cncc1CCNC(=O)C1CN(CCC2CCCCC2)CCN1C(=O)NC1CCCCC1 (stereo not shown) [Example 61]	0.18 to 21 nM
O=C(NCCc1cncn1Cc1ccccc1)[C@H]1CN(CCC2CCCCC2)CCN1C(=O)NC1CCCCC1 [Example 64]	0.18 to 21 nM

Other lines, results leading:

IC50	Structure (SMILES)
0.18 to 21 nM	O=C(NCCc1cncn1Cc1ccc(Cl)cc1)[C@H]1CN(Cc2ccccc2)CCN1C(=O)NC1CCCCC1 [Example 28C, N4-phenylmethyl-N2-[2-[1-[(4-chlorophenyl)methyl]-1H-imidazol-5-yl]ethyl]-N1-cyclohexyl-1,2(R)-piperazinedicarboxamide]
0.18 to 21 nM	CCC(=O)N1CCN(Cc2ccccc2)C[C@@H]1C(=O)NCCc1cncn1Cc1ccc(C#N)cc1 [Example 28E, N-[2-[1-[(4-cyanophenyl)methyl]-1H-imidazol-5-yl]ethyl]-1-(1-oxopropyl)-4-phenyl(methyl)-2(R)-piperazinedicarboxamide]
0.18 to 21 nM	CCCC(=O)N1CCN(Cc2ccccc2)C[C@@H]1C(=O)NCCc1cncn1Cc1ccc(C#N)cc1 [Example 28F, N-[2-[1-[(4-cyanophenyl)methyl]-1H-imidazol-5-yl]ethyl]-1-(1-oxobutyl)-4-phenyl(methyl)-2(R)-piperazinedicarboxamide]
0.18 to 21 nM	N#Cc1ccc(Cn2cncc2CCNC(=O)[C@H]2CN(Cc3ccccc3)CCN2C(=O)c2ccccc2)cc1 [Example 28G, 1-benzoyl-N-[2-[1-[(4-cyanophenyl)methyl]-1H-imidazol-5-yl]ethyl]-4-phenylmethyl-2(R)-piperazinedicarboxamide]
0.18 to 21 nM	N#Cc1ccc(Cn2cncc2CCNC(=O)[C@H]2CN(Cc3ccccc3)CCN2C(=O)Cc2ccccc2)cc1 [Example 28I, N-[2-[1-[(4-cyanophenyl)methyl]-1H-imidazol-5-yl]ethyl]-1-phenylacetyl-4-(phenylmethyl)-2(R)-piperazinedicarboxamide]
0.18 to 21 nM	N#Cc1ccc(Cn2cncc2CCNC(=O)[C@H]2CN(Cc3ccccc3)CCN2S(=O)(=O)Cc2ccccc2)cc1 [Example 28M, N-[2-[1-[(4-cyanophenyl)methyl]-1H-imidazol-5-yl]ethyl]-1-[(phenylmethyl)sulfonyl]-4-(phenylmethyl)-2(R)-piperazinecarboxamide]
0.18 to 21 nM and 0.18 to 1.5 nM	CC(C)(C)NC(=O)N1CCN(Cc2ccccc2)C[C@@H]1C(=O)NCCc1cncn1Cc1ccc(C#N)cc1 [Example 28O, N2-[2-[1-[(4-cyanophenyl)methyl]-1H-imidazol-5-yl]ethyl]-N1-(1,1-dimethylethyl)-4-(phenylmethyl)-1,2(R)-piperazinedicarboxamide]
0.18 to 21 nM	N#Cc1ccc(Cn2cncc2CCNC(=O)[C@H]2CN(Cc3ccccc3)CCN2C(=O)Cc2cc[n+]([O-])cc2)cc1 [Example 28P, N-[2-[1-[(4-cyanophenyl)methyl]-1H-imidazol-5-yl]ethyl]-4-(phenylmethyl)-1-(4-pyridinylacetyl)-2(R)-piperazinecarboxamide N1-oxide]
0.18 to 21 nM	N#Cc1ccc(Cn2cncc2CCNC(=O)[C@H]2CN(Cc3ccccc3)CCN2C(=O)CC2CCN(C(N)=O)CC2)cc1 [Example 28Q, 1-[[1-(aminocarbonyl)-4-piperidinyl]acetyl]-N-[2-[1-[(4-cyanophenyl)methyl]-1H-imidazol-5-yl]ethyl]-4-(phenylmethyl)-2(R)-piperazinecarboxamide]
0.18 to 21 nM	N#Cc1ccc(Cn2cncc2CCNC(=O)[C@H]2CN(S(=O)(=O)c3ccccc3)CCN2C(=O)NC2CCCCC2)cc1 [Example 28R, N2-[2-[1-[(4-Cyanophenyl)methyl]-1H-imidazol-5-yl]ethyl]-N1-cyclohexyl-4-(phenylsulfonyl)-1,2(R)-piperazinedicarboxamide]
0.18 to 21 nM	O=C([C@H]1CN(Cc2ccccc2)CCN1C(=O)NC1CCCCC1)N(CCCn1ccnc1)Cc1ccccc1 [Example 28S, N1-cyclohexyl-N2-[3-(1H-imidazol-1-yl)propyl]-N2,4-bis(phenylmethyl)-1,2(R)-piperazinedicarboxamide]
